Data from publication PMC9516332 (Frontiers in Oncology, 2022).
Like-named read-outs stand apart in the source and are kept apart here.

What was measured:
Assay in all cases: Kinase panel profiling at 1 µmol/L (MSA or IMAP), percentage inhibition
Type in all cases: biochemical
[1] = target: T1, panel of 255 wild-type kinases (Homo sapiens, UniProt O00141); details: kinase SGK; 1 µmol/L single concentration; read-out: %-inhibition at 1 µmol/L, SGK
T1 sequence (O00141 1-431): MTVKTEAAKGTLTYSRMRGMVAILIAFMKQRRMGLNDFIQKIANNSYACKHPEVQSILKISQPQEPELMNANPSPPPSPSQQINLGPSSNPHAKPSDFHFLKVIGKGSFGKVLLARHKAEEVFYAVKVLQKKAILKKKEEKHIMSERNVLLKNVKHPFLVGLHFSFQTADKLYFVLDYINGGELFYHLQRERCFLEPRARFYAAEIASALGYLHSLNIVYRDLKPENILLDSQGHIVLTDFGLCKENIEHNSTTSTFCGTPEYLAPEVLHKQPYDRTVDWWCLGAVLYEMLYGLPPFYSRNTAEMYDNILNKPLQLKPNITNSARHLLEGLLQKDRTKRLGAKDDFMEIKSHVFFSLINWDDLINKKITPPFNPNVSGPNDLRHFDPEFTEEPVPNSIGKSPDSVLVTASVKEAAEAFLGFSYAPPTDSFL

[2] = target: T2, panel of 255 wild-type kinases (Homo sapiens, UniProt O14757); details: CHK1 kinase assay; 1 µmol/L single concentration; read-out: %-inhibition CHK1
T2 sequence (O14757 1-476): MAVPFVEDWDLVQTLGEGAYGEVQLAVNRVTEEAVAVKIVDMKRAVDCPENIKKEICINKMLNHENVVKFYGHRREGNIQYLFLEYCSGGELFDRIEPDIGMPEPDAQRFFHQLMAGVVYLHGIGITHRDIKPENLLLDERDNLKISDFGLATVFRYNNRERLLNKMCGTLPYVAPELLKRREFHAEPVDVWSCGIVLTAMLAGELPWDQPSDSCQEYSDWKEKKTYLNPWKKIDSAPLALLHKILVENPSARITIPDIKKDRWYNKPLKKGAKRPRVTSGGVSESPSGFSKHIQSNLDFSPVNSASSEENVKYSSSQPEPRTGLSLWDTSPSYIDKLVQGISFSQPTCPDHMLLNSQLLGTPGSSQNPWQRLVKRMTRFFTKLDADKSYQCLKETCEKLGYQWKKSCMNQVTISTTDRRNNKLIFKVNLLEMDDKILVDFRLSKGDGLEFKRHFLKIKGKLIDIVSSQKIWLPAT

[3] = target: panel of 255 wild-type kinases (Homo sapiens, UniProt P09619); details: read-out: %-inhibition at 1 µmol/L, PDGFRβ
[4] = target: panel of 255 wild-type kinases (Homo sapiens, UniProt P48729); details: kinase CK1α; 1 µmol/L single concentration; read-out: %-inhibition at 1 µmol/L, CK1α
[5] = target: T3, panel of 255 wild-type kinases (Homo sapiens, UniProt Q9HBY8); details: kinase SGK2; 1 µmol/L single concentration; read-out: %-inhibition at 1 µmol/L, SGK2
T3 sequence (Q9HBY8 1-367): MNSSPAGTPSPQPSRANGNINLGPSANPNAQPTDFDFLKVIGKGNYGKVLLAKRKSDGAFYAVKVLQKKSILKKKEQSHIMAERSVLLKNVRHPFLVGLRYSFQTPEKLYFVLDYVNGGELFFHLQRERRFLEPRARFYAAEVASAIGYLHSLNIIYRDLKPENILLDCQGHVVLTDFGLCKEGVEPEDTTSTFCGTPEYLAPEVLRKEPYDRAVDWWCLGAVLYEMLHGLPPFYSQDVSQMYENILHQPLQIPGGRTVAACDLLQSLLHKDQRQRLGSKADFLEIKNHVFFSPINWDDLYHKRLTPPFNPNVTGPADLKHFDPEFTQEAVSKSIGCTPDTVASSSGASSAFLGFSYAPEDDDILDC

[6] = target: panel of 255 wild-type kinases (Homo sapiens, UniProt P12931); details: kinase SRC; 1 µmol/L single concentration; read-out: %-inhibition at 1 µmol/L, SRC
[7] = target: panel of 255 wild-type kinases (Homo sapiens, UniProt Q07912); details: ACK kinase assay; 1 µmol/L single concentration; read-out: %-inhibition ACK
[8] = target: panel of 255 wild-type kinases (Homo sapiens, UniProt P08631); details: kinase HCK; 1 µmol/L single concentration; read-out: %-inhibition at 1 µmol/L, HCK
[9] = target: panel of 255 wild-type kinases (Homo sapiens, UniProt P17948); details: kinase FLT1; 1 µmol/L single concentration; read-out: %-inhibition at 1 µmol/L, FLT1
[10] = kinase PDGFRβ, 1 µmol/L single concentration

Compound | inhibition at 1 µM [1] [%] | inhibition at 1 µM [2] [%] | inhibition at 1 µM [3, 10] [%] | inhibition at 1 µM [4] [%] | inhibition at 1 µM [5] [%] | inhibition at 1 µM [6] [%] | inhibition at 1 µM [7] [%] | inhibition at 1 µM [8] [%] | inhibition at 1 µM [9] [%] | inhibition at 1 µM [3] [%]
CCc1nc(C(N)=O)c(Nc2ccc(N3CCC(N4CCN(C)CC4)CC3)c(OC)c2)nc1NC1CCOCC1 [gilteritinib] | 8.52 | 22 | 105 | 13 | -3.51 | 89 | 90 | 87 | 95 | 
CCN1CCN(c2ccc(Nc3cc(N(C)C(=O)Nc4c(Cl)c(OC)cc(OC)c4Cl)ncn3)cc2)CC1 [infigratinib] | -1.45 | -1.07 | 59 | -7.38 | -8 | 37 | 43 | 22 | 91 | 
O=C(Nc1cnn2ccc(N3CCC[C@@H]3c3cc(F)ccc3F)nc12)N1CC[C@H](O)C1 [larotrectinib] | -1.16 | 14 | -0.157 | 1.46 | -4 | -4.39 | 52 | -3 | -0.638 | 
C[C@H]1Oc2cc(cnc2N)-c2c(nn(C)c2C#N)CN(C)C(=O)c2ccc(F)cc21 [lorlatinib] | -0.181 | 12 | 2.32 | -12 | 4.34 | 28 |  | 42 | 3.17 | 
CCN1C(=O)N(c2c(F)c(OC)cc(OC)c2F)Cc2cnc3[nH]c(CN4CCOCC4)cc3c21 [pemigatinib] | 5 | 12 | 73 | 2.22 | 8 | 2.67 | 4.32 | 31 | 95 | 
FC(F)(F)c1ccc(CNc2ccc(Cc3c[nH]c4ncc(Cl)cc34)cn2)cn1 [pexidartinib] | 11 | 5.6 | 64 | 4.47 | 8 | 0.371 | 12 | 3 | 82 | 
CO[C@]1(C(=O)N[C@@H](C)c2ccc(-n3cc(F)cn3)nc2)CC[C@H](c2nc(C)cc(Nc3cc(C)[nH]n3)n2)CC1 [pralsetinib] | 7 | 11 | 99 | -2.22 | 11 | 94 | 84 | 82 | 96 | 
CCn1c(=O)c(-c2cc(NC(=O)Nc3ccccc3)c(F)cc2Br)cc2cnc(NC)cc21 [ripretinib] | -5 | 3.57 |  | 11 | -5 | 71 | 23 | 60 | 91 | 106
C=CC(=O)N1CCC([C@@H]2CCNc3c(C(N)=O)c(-c4ccc(Oc5ccccc5)cc4)nn32)CC1 [zanubrutinib] | -0.675 | 16 | 3.39 | -0.607 | -2.33 |  | 11 |  | 2.22 | 
